The source made the active and inactive calls. The calls are words filed in the database; no cut-off is given here.
Tests used:
Liposcelis paeta [1] = experiment: Insecticidal activity against Liposcelis paeta in compound pre-treated rice grains assessed as mortality at 2.2 ppm after 7 days (reference value: 3.3 +/-1.7%); format: functional
Liposcelis entomophila [2] = experiment: Insecticidal activity against Liposcelis entomophila in compound pre-treated maize grains assessed as mortality at 1.6 ppm after 7 days (reference value: 15.6 +/-6.9%); format: functional
Liposcelis entomophila [3] = experiment: Insecticidal activity against Liposcelis entomophila in compound pre-treated rice grains assessed as mortality at 2.2 ppm after 14 days (reference value: 10.0 +/-4.7%); format: functional
Liposcelis paeta [4] = experiment: Insecticidal activity against Liposcelis paeta in compound pre-treated wheat grains assessed as mortality at 1.6 ppm after 14 days (reference value: 5.6 +/-1.8%); format: functional
Liposcelis paeta [5] = experiment: Insecticidal activity against Liposcelis paeta in compound pret-reated wheat grains assessed as mortality at 1.6 ppm after 7 days (reference value: 7.8 +/-3.2%); format: functional; conditions: 168 h
[6] = test system: Liposcelis bostrychophila; experiment: Insecticidal activity against Liposcelis bostrychophila (booklice) in compound pre-treated maize grains assessed as decrease in progeny production at 1.6 ppm after 30 days; format: functional, organism-based
[7] = test system: Liposcelis bostrychophila; experiment: Insecticidal activity against Liposcelis bostrychophila (booklice) in compound pre-treated rice grains assessed as effect on progeny production at 2.2 ppm after 30 days; format: functional, organism-based
[8] = test system: Liposcelis bostrychophila; experiment: Insecticidal activity against Liposcelis bostrychophila (booklice) in compound pre-treated wheat grains assessed as effect on progeny production at 1.6 ppm after 30 days; format: functional, organism-based
[9] = test system: Liposcelis bostrychophila; experiment: Insecticidal activity against Liposcelis bostrychophila (booklice) in compound pre-treated maize grains assessed as mortality at 1.6 ppm after 14 days (reference value: 13.5 +/-5.3%); format: functional
[10] = test system: Liposcelis bostrychophila; experiment: Insecticidal activity against Liposcelis bostrychophila (booklice) in compound pre-treated maize grains assessed as mortality at 1.6 ppm after 7 days (reference value: 8.9 +/-2.6%); format: functional
[11] = test system: Liposcelis bostrychophila; experiment: Insecticidal activity against Liposcelis bostrychophila (booklice) in compound pre-treated rice grains assessed as mortality at 2.2 ppm after 14 days (reference value: 9.7 +/-2.4%); format: functional
[12] = test system: Liposcelis bostrychophila; experiment: Insecticidal activity against Liposcelis bostrychophila (booklice) in compound pre-treated rice grains assessed as mortality at 2.2 ppm after 7 days (reference value: 8.9 +/-4.5%); format: functional
[13] = test system: Liposcelis bostrychophila; experiment: Insecticidal activity against Liposcelis bostrychophila (booklice) in compound pre-treated wheat grains assessed as mortality at 1.6 ppm after 14 days (reference value: 6.8 +/-3.3%); format: functional
[14] = test system: Liposcelis bostrychophila; experiment: Insecticidal activity against Liposcelis bostrychophila (booklice) in compound pre-treated wheat grains assessed as mortality at 1.6 ppm after 7 days (reference value: 3.3 +/-1.7%); format: functional
Liposcelis entomophila [15] = experiment: Insecticidal activity against Liposcelis entomophila in compound pre-treated maize grains assessed as decrease in progeny production at 1.6 ppm after 30 days; format: functional, organism-based
Lepinotus reticulatus [16] = experiment: Insecticidal activity against Lepinotus reticulatus in compound pre-treated maize grains assessed as mortality at 1.6 ppm after 7 days (reference value: 34.4 +/-11.4%); format: functional
Lepinotus reticulatus [17] = experiment: Insecticidal activity against Lepinotus reticulatus in compound pre-treated rice grains assessed as mortality at 2.2 ppm after 14 days (reference value: 15.5 +/-4.1%); format: functional
Lepinotus reticulatus [18] = experiment: Insecticidal activity against Lepinotus reticulatus in compound pre-treated rice grains assessed as mortality at 2.2 ppm after 7 days (reference value: 6.8 +/-2.4%); format: functional
Lepinotus reticulatus [19] = experiment: Insecticidal activity against Lepinotus reticulatus in compound pre-treated wheat grains assessed as mortality at 1.6 ppm after 14 days (reference value: 21.1 +/-7.4%); format: functional
Lepinotus reticulatus [20] = experiment: Insecticidal activity against Lepinotus reticulatus in compound pre-treated wheat grains assessed as mortality at 1.6 ppm after 7 days (reference value: 10.0 +/-5.3%); format: functional
Lepinotus reticulatus [21] = experiment: Insecticidal activity against Lepinotus reticulatus in compound pre-treated rice grains assessed as effect on progeny production at 2.2 ppm after 30 days; format: functional, organism-based
Liposcelis entomophila [22] = experiment: Insecticidal activity against Liposcelis entomophila in compound pre-treated rice grains assessed as effect on progeny production at 2.2 ppm after 30 days; format: functional, organism-based
Liposcelis entomophila [23] = experiment: Insecticidal activity against Liposcelis entomophila in compound pre-treated wheat grains assessed as decrease in progeny production at 1.6 ppm after 30 days; format: functional, organism-based
Liposcelis entomophila [24] = experiment: Insecticidal activity against Liposcelis entomophila in compound pre-treated maize grains assessed as mortality at 1.6 ppm after 14 days (reference value: 14.4 +/-4.1%); format: functional
Liposcelis entomophila [25] = experiment: Insecticidal activity against Liposcelis entomophila in compound pre-treated rice grains assessed as mortality at 2.2 ppm after 7 days (reference value: 3.3 +/-2.6%); format: functional
Liposcelis entomophila [26] = experiment: Insecticidal activity against Liposcelis entomophila in compound pre-treated wheat grains assessed as mortality at 1.6 ppm after 14 days (reference value: 13.3 +/-4.7%); format: functional
Liposcelis entomophila [27] = experiment: Insecticidal activity against Liposcelis entomophila in compound pre-treated wheat grains assessed as mortality at 1.6 ppm after 7 days (reference value: 5.6 +/-2.9%); format: functional
Lepinotus reticulatus [28] = experiment: Insecticidal activity against Lepinotus reticulatus in compound pre-treated maize grains assessed as decrease in progeny production at 1.6 ppm after 30 days; format: functional, organism-based
Lepinotus reticulatus [29] = experiment: Insecticidal activity against Lepinotus reticulatus in compound pre-treated wheat grains assessed as decrease in progeny production at 1.6 ppm after 30 days; format: functional, organism-based
Lepinotus reticulatus [30] = experiment: Insecticidal activity against Lepinotus reticulatus in compound pre-treated maize grains assessed as mortality at 1.6 ppm after 14 days (reference value: 61.1 +/-11.9%); format: functional
Liposcelis paeta [31] = experiment: Insecticidal activity against Liposcelis paeta in compound pre-treated maize grains assessed as mortality at 1.6 ppm after 14 days (reference value: 14.1 +/-4.1%); format: functional
Liposcelis paeta [32] = experiment: Insecticidal activity against Liposcelis paeta in compound pret-reated maize grains assessed as mortality at 1.6 ppm after 7 days (reference value: 13.3 +/-3.3%); format: functional; conditions: 168 h
Liposcelis paeta [33] = experiment: Insecticidal activity against Liposcelis paeta in compound pre-treated rice grains assessed as mortality at 2.2 ppm after 14 days (reference value: 3.4 +/-1.6%); format: functional

C=C/C=C\CC1=C(C)[C@@H](OC(=O)[C@@H]2[C@@H](/C=C(\C)C(=O)OC)C2(C)C)CC1=O [PYRETHRIN]
mortality at 2.2 ppm (Liposcelis paeta [1]): 15.7%
mortality at 1.6 ppm (Liposcelis entomophila [2]): 17.8%
mortality at 2.2 ppm (Liposcelis entomophila [3]): 16.7%
mortality at 1.6 ppm (Liposcelis paeta [4]): 14.4%
mortality at 1.6 ppm (Liposcelis paeta [5]): 14.5%
inhibition [6]: Active
inhibition [7]: inactive
inhibition [8]: inactive
mortality at 1.6 ppm [9]: 23.3%
mortality at 1.6 ppm [10]: 18.9%
mortality at 2.2 ppm [11]: 26.5%
mortality at 2.2 ppm [12]: 23.3%
mortality at 1.6 ppm [13]: 30%
mortality at 1.6 ppm [14]: 17.8%
inhibition (Liposcelis entomophila [15]): Active
mortality at 1.6 ppm (Lepinotus reticulatus [16]): 57.8%
mortality at 2.2 ppm (Lepinotus reticulatus [17]): 14.3%
mortality at 2.2 ppm (Lepinotus reticulatus [18]): 23.4%
mortality at 1.6 ppm (Lepinotus reticulatus [19]): 65.7%
mortality at 1.6 ppm (Lepinotus reticulatus [20]): 41.1%
inhibition (Lepinotus reticulatus [21]): inactive
inhibition (Liposcelis entomophila [22]): inactive
inhibition (Liposcelis entomophila [23]): Active
mortality at 1.6 ppm (Liposcelis entomophila [24]): 60%
mortality at 2.2 ppm (Liposcelis entomophila [25]): 8.9%
mortality at 1.6 ppm (Liposcelis entomophila [26]): 55.6%
mortality at 1.6 ppm (Liposcelis entomophila [27]): 47.8%
inhibition (Lepinotus reticulatus [28]): Active
inhibition (Lepinotus reticulatus [29]): Active
mortality at 1.6 ppm (Lepinotus reticulatus [30]): 86.7%
mortality at 1.6 ppm (Liposcelis paeta [31]): 18.9%
mortality at 1.6 ppm (Liposcelis paeta [32]): 10%
mortality at 2.2 ppm (Liposcelis paeta [33]): 31.1%

— ChEMBL document CHEMBL3044811, “Efficacy of grain protectants against four psocid species on maize, rice and wheat” (2009)
